Measured values: patent publication US20160168616A1, “PRODUCTION OF NONTOXIC RAW MATERIALS AND FINISHED PRODUCTS TESTED BY MEANS OF AN INNOVATIVE PROBIOTIC BACTERIA BASED METHOD FOR DETERMINING TOXICITY TOWARDS PROBIOTIC BACTERIA” (PROBIOTICAL S.P.A., priority 2013, published 2016)

Tested on: probiotic bacterial strains indicated in Table 1 with the numbers 17, 22, 41, 60, 74, 98, 121, 145, 174 and 182
Assay: toxicity test of raw materials with the method of the invention (plate count, % mortality)
Format: cell-based
Details: raw material test; strains 17, 22, 41, 60, 74, 98, 121, 145, 174 and 182 of Table 1 as toxicity markers
Protocol: The method comprises a step in which the probiotic bacterial strain (toxicity marker) is placed in contact with a raw material to be tested using a quantity of raw material equal to that normally used in the formulation.
In practical terms, a first sample is prepared which comprises the probiotic bacterial strain (toxicity marker), the optimal culture substrate for said probiotic bacterial strain and the raw material to be tested.
Then a second sample (internal reference) is prepared which comprises the same probiotic bacterial strain used in said first sample (toxicity marker) and only the optimal culture substrate (without the raw material to be tested). […]
The ratio between the bacterial count (number of cells counted on the plate) of said first sample and the bacterial count (number of cells on the plate) of said second sample provides a number less than 1, which, if expressed as a percentage, provides a count of the bacteria which survived in contact with the raw material and, therefore, also expresses the % mortality induced by said raw material in the probiotic bacterial strains used as a marker. […]
8.11 incubate the plates upside down at 37±1° C. for 72 h under anaerobic conditions (Gas-Pak+anaerobic kit). […] The result will be expressed as CFU, i.e. Colony Forming Units. […]

**Q.** With `O=C(O)CC(O)(CC(=O)O)C(=O)O` [Citric Acid] as the compound, how does the mortality found read?
**A.** 2%
